Assay results published in patent publication EP2662079A1 (Ordway Research Institute, Inc., priority 2012, dated 2013).
Where “and” joins values, the source holds several entries; their conditions need not be identical. Equal values may be shown once.

What was measured:
ERK1/2 = experiment: MAPK activation (nuclear phosphorylated ERK1/2 immunoblot); assay type: cell-based; conditions: for effect on MAPK activation by T4: PD 98059 30 µmol/L or CGP41251 100 nmol/L for 30 minutes, then 10^-7 M T4
Experimental: ECV304 endothelial cells were cultured in M199 medium with 0.25% hormone-depleted serum 13 for 2 days. […] Nuclear fractions were pre-pared from all samples by the method reported previously (see Li et al., Carcinogenesis 29:62-69 (2008)), the proteins separated by polyacrylamide gel electrophoresis, and transferred to membranes for immunoblotting with antibody to phosphorylated ERK 1/2.

[1] = system: chick chorioallantoic membrane (CAM); experiment: Chorioallantoic membrane (CAM) model of angiogenesis; assay type: in vivo; conditions: for Mean Branch points: n=8
Experimental: In vivo neovascularization was examined by methods described previously. 9-12 Ten-day-old chick embryos were purchased from SPAFAS (Preston, CT) and incubated at 37°C with 55% relative humidity. A hypodermic needle was used to make a small hole in the shell concealing the air sac, and a second hole was made on the broad side of the egg, directly over an avascular portion of the embryonic membrane that was identified by candling. A false air sac was created beneath the second hole by the application of negative pressure at the first hole, causing the CAM to separate from the shell. A window approximately 1.0 cm^2 was cut in the shell over the dropped CAM with a small-crafts grinding wheel (Dremel, division of Emerson Electric Co.), allowing direct access to the underlying CAM. FGF2 (1µg/mL) was used as a standard proangiogenic agent to induce new blood vessel branches on the CAM of 10-day-old embryos. Sterile disks of No. 1 filter paper (Whatman International) were pretreated with 3 mg/mL cortisone acetate and 1 mmol/L PTU and air dried under sterile conditions. Thyroid hormone, hormone analogs, FGF2 or control solvents, and inhibitors were then applied to the disks and the disks allowed to dry. The disks were then suspended in PBS and placed on growing CAMs. […] At 24 hours, the MAPK cascade inhibitor PD 98059 was also added to CAMs topically by means of the filter disks.
After incubation at 37°C with 55% relative humidity for 3 days, the CAM tissue directly beneath each filter disk was resected from control and treated CAM samples. Tissues were washed 3X with PBS, placed in 35-mm Petri dishes (Nalge Nunc), and examined under an SV6 stereomicroscope (Zeiss) at X50 magnification. Digital images of CAM sections exposed to filters were collected using a 3-charge-coupled device color video camera system (Toshiba) and analyzed with Image-Pro software (Media Cybernetics). The number of vessel branch points contained in a circular region equal to the area of each filter disk were counted. One image was counted in each CAM preparation, and findings from 8 to 10 CAM preparations were analyzed for each treatment condition (thyroid hormone or analogs, FGF2, FGF2 antibody, PD 98059). In addition, each experiment was performed 3 times. The resulting angiogenesis index is the mean ± SEM of new branch points.

[2] = system: transplantable liver tumor; conditions: PTU alone; cited from earlier work
glioblastoma (GBM) = conditions: mild hypothyroidism induced by PTU; cited from earlier work
Matrigel plugs = experiment: Mouse Matrigel model of angiogenesis (plug hemoglobin); assay type: in vivo, mice (C57BL/6NCr); conditions: for Inhibition of FGF induced angiogenesis (grade): mouse matrigel model
Experimental: Normal male mice (C57BL/6NCr) 6-8 weeks of age and weighing ~20 g were purchased from Taconic farm. Animals were housed 4 per cage, in controlled conditions of temperature (20-24 °C); humidity (60-70%) and 12 hrs. light/dark cycle provided with food and water ad libitum. […] Matrigel (BD Bioscience, San Jose CA) was thawed overnight at 4 °C and placed on ice. Aliquots of matrigel were placed into cold polypropylene tubes to prevent the matrigel from solidifying and the angiogenesis promoter added to matrigel with or without agonist. Mice were treated daily. Matrigel was subcutaneously injected as triple injection per animal at 100 µL/animal. At day 14 post plug implant all animals were killed in CO2 chamber and matrigel plugs were collected. […]
The matrigel plugs dissected from the mice were carefully stripped of any remaining peritoneum. The plugs were placed into 0.5 mL tube of ddH2O and homogenized for 5-10 min. […] Absorbance was read with a Microplate Manager ELISA reader at 540 nm. […] Hemoglobin concentration is a reflection of the number of blood vessels in the plugs.

ECV304 endothelial cells = experiment: FGF2 release from ECV304 endothelial cells (ELISA); assay type: cell-based
Experimental: ECV304 endothelial cells were cultured in M199 medium supplemented with 10% fetal bovine serum. […] After 72 hours, the supernatants were harvested and assays for FGF performed without dilution using a commercial ELISA system (R&D Systems) (See Davis et al., Circ Res 94:1500-1506 (2004)).

FGF2 cDNA = experiment: RT-PCR of FGF2 in ECV304 cells; assay type: cell-based; conditions: T4 10^-7 mol/L for 6 to 48 hours
Experimental: RNA (1 µg) was subjected to reverse transcription-polymerase chain reaction (RT-PCR) using the Access RT-PCR system (Promega). Total RNA was reverse transcribed into cDNA at 48°C for 45 minutes, then denatured at 94°C for 2 minutes. Second-strand synthesis and PCR amplification were performed for 40 cycles with denaturation at 94°C for 30 s, annealing at 60°C for 60 s, and extension at 68°C for 120 s, with final ex-tension for 7 minutes at 68°C after completion of all cycles. PCR primers for FGF2 were as follows: FGF2 sense strand 5'-[…]-3' (SEQ ID NO:1), antisense strand 5' […]-3' (SEQ ID NO:2); the length of the PCR product was 734 bp. Primers for GAPDH included the sense strand 5'-[…]-3' (SEQ ID NO:3), and antisense strand 5'-[…]-3' (SEQ ID NO:4); the length of the PCR product was 218 bp. […] The target bands of the gel were quantified using LabImage software (Kapelan), and the value for [FGF2/GAPDH]X10 calculated for each time point.

[3] = cited from earlier work
[4] = CAM model, FGF (1.25 µg/ml) + compound at 10 µg/plug
[5] = FGF 100 ng + compound 10 µg/plug, n= 7-14

Structure (SMILES): CO[C@@H]1[C@H](N(C)C(=O)c2ccccc2)C[C@H]2O[C@]1(C)n1c3ccccc3c3c4c(c5c6ccccc6n2c5c31)C(=O)NC4 [CGP41251]
- effect on MAPK activation by T4 (ERK1/2): blocked

Structure (SMILES): COc1cccc(-c2cc(=O)c3ccccc3o2)c1N [PD 98059]
- effect on blood vessel branching caused by T3 and T4 ([1]; 3 µmol/L PD 98059): completely blocked
- effect on MAPK activation by T4 (ERK1/2): inhibited

Structure (SMILES): CCCc1cc(=O)[nH]c(=S)[nH]1 [PTU, 6-N-propyl-2-thiouracil]
- growth rate versus control neoplasms [2]: no difference in growth rate
- improvement of the duration of survival (glioblastoma (GBM)): 3 fold

Structure (SMILES): CNC(Cc1cc(I)c(Oc2cc(I)c(O)c(I)c2)c(I)c1)C(=O)[O-].O.O.[K+] (centres unmarked) [T4 analog 10, Potassium 3-[4-(4-hydroxy-3,5-diiodophenoxy)-3,5-diiodophenyl]-2-(methylamino)propanoate dihydrate]
- Hemoglobin (mg/mL)± SEM (Matrigel plugs; 10 µg/matrigel plug, n= 6-7): 0.8 ± 0.2 mg/mL

Structure (SMILES): CCNC(Cc1cc(I)c(Oc2cc(I)c(O)c(I)c2)c(I)c1)C(=O)O (centres unmarked) [T4 analog 11, 2-(Ethylamino)-3-[4-(4-hydroxy-3,5-diiodophenoxy)-3,5-diiodophenyl]propanoic acid]
- Mean % of stimulation (comparing to PBS) ([1]; CAM model, 0.1 µM): 86.3 ± 9.4%
- Mean Branch points ([1]; CAM model, 0.1 µM, mean ± SEM): 136± 12.8
- Mean stimulation of angiogenesis (%) (Matrigel plugs; 10 µg/matrigel plug): 45±33%
- Hemoglobin (mg/mL)± SEM (Matrigel plugs; 10 µg/matrigel plug, n= 6-7): 0.6 ± 0.2 mg/mL

Structure (SMILES): CC(C)(C)OC(=O)NC(Cc1cc(I)c(Oc2cc(I)c(OCC3CO3)c(I)c2)c(I)c1)C(=O)OCC1CO1 (centres unmarked) [T4 analog 14, Oxiran-2-ylmethyl-2-(tert-butoxycarbonylamino)-3-(4-(3,5-diiodo-4-(oxiran-2-ylmethoxy)phenoxy)-3,5-diiodophenyl)propanoate]
- Hemoglobin (mg/mL)± SEM (Matrigel plugs; 10 µg/matrigel plug, n= 6-7): 0.3 ± 0.1 mg/mL

Structure (SMILES): N[C@@H](Cc1cc(I)c(Oc2cc(I)c(O)c(I)c2)c(I)c1)C(=O)O [T4, L-thyroxine]
- generation of new blood vessels from existing vessels promoted ([1]; 10^7-10-^9 M): two- to three-fold
- Branch pts ± SEM ([1]; CAM assay before conjugation, 0.1 µM): 137.3 ± 8.8
- increase in angiogenesis ([1]; CAM model, 3 experiments (Figure 5A)): 1.5 fold
- Mean % of stimulation (comparing to PBS) ([1]; CAM model, 0.1 µM): 87.7 ± 7%
- Mean Branch points ([1]; CAM model, 0.1 µM, mean ± SEM): 137± 8
- ANGIOGENESIS INDEX ([1]; CAM model, 0.1uM, n = 8 per group): 143.8 ± 7.9
- increase in blood vessel branch formation ([1]; T4 0.1 µmol/L for 3 days): 2.5 fold and 2.3 fold
- increase of FGF2 concentration in the medium (ECV304 endothelial cells; T4 (0.1 µmol/L) or T3 (0.01 µmol/L) for 3 days): 1.4 fold
- FGF2 (pg/mL/10^6 cells) (ECV304 endothelial cells; T4 (0.1 µmol/L), 3 days): 39.2 ±2.8 pg/mL/10^6 cells
- appearance of phosphorylated ERK1/2 in cell nuclei (ERK1/2; T4 10^-7 mol/L): ≤ 15 min
- increase in abundance of FGF2 cDNA, corrected for GAPDH content (FGF2 cDNA): apparent by 6 hours
- Hemoglobin (mg/mL)± SEM (Matrigel plugs; T4 (0.1 µM)): 0.9 ± 0.2 mg/mL
- Mean stimulation of angiogenesis (%) (Matrigel plugs; T4 (0.1 µM)): 100±22%
- Hemoglobin (mg/mL)± SEM (Matrigel plugs; T4 alone, 10 µg/matrigcl plug, n= 25): 1.2 ± 0.4 mg/mL
- pKa of the COOH (carboxylic acid) group [3]: ~2.0
- pKa of the NH2 (amino) group [3]: approximately 9.0
- pKa of the PhOH (phenol) group ([3]; fluorescent quenching): 6.2

Structure (SMILES): CC(C)(C)OC(=O)Cc1cc(I)c(Oc2cc(I)c(O)c(I)c2)c(I)c1 [Tetrac analog 3, tert-Butyl-2-(4-(4-hydroxy-3,5-diiodophenoxy)-3,5-diiodophenyl)acetate]
- Mean % Inhibition [1, 4]: 88±13%
- Mean Branch points [1, 4]: 79±7
- Hemoglobin (mg/mL)± SEM (Matrigel plugs; [5]): 0.4 ± 0.1 mg/mL
- Inhibition of FGF induced angiogenesis (grade) (Matrigel plugs): strong (compounds were considered to be strong inhibitors if they achieved more than 50% inhibition as compared to the control)

Structure (SMILES): O=C(Cc1cc(I)c(Oc2cc(I)c(O)c(I)c2)c(I)c1)NC1CCCCC1 [Tetrac analog 4, N-cyclohexyl-2-(4-(4-hydroxy-3.5-diiodophenoxy)-3,5-diiodophenyl)acetamide]
- Hemoglobin (mg/mL)± SEM (Matrigel plugs; [5]): 0.2 ± 0.1 mg/mL
- Inhibition of FGF induced angiogenesis (grade) (Matrigel plugs): strong (compounds were considered to be strong inhibitors if they achieved more than 50% inhibition as compared to the control)

Structure (SMILES): CC(C)[Si](OC(=O)Cc1cc(I)c(Oc2cc(I)c(O)c(I)c2)c(I)c1)(C(C)C)C(C)C [Tetrac analog 5, Triisopropylsilyl-2-(4-(4-hydroxy-3,5-diiodophenoxy)-3,5-diiodophenyl)acetate]
- Hemoglobin (mg/mL)± SEM (Matrigel plugs; [5]): 0.2 ± 0.1 mg/mL
- Inhibition of FGF induced angiogenesis (grade) (Matrigel plugs): strong (compounds were considered to be strong inhibitors if they achieved more than 50% inhibition as compared to the control)

Structure (SMILES): O=C(Cc1cc(I)c(Oc2cc(I)c(OCC3CO3)c(I)c2)c(I)c1)NC1CCCCC1 (centres unmarked) [Tetrac analog 6, N-cyclohexyl-2-(4-(3,5-diiodo-4-(oxiran-2-ylmethoxy)phenoxy)-3,5-diiodophenyl)acetamide]
- Hemoglobin (mg/mL)± SEM (Matrigel plugs; [5]): 0.7 ± 0.1 mg/mL
- Inhibition of FGF induced angiogenesis (grade) (Matrigel plugs): strong (compounds were considered to be strong inhibitors if they achieved more than 50% inhibition as compared to the control)
